Laboratory results from ChEMBL document CHEMBL5107949, “Design, synthesis, and antibacterial activity of N-(trifluoromethyl)phenyl substituted pyrazole derivatives” (RSC Med Chem, 2021).
Converted amounts (≈) assume the structure as drawn. The source made the active and inactive calls. The calls are words filed in the database; no cut-off is given here.

Columns and labels:
Staphylococcus aureus [1] = assay: Inhibition of DNA synthesis in Staphylococcus aureus ATCC 29213 at 0.25 times MIC preincubated for 30 mins followed by [3H]-thymidine and measured after 30 mins by [3H]-thymidine incorporation based beta scintillation counter analysis; assay type: functional; settings: time 60 min; 1 h
Staphylococcus aureus [2] = assay: Antibacterial activity against antibiotic resistant Staphylococcus aureus ATCC 33591 assessed as inhibition of bacterial growth by CLSI protocol based broth microdilution method; assay type: functional
Staphylococcus aureus [3] = assay: Antibacterial activity against antibiotic resistant Staphylococcus aureus BAA-2312 assessed as inhibition of bacterial growth by CLSI protocol based broth microdilution method; assay type: functional
Bacillus subtilis = assay: Antibacterial activity against antibiotic resistant Bacillus subtilis ATCC 6623 assessed as inhibition of bacterial growth by CLSI protocol based broth microdilution method; assay type: functional
Enterococcus faecalis [4] = assay: Antibacterial activity against antibiotic susceptible Enterococcus faecalis ATCC 29212 assessed as inhibition of bacterial growth by CLSI protocol based broth microdilution method; assay type: functional
Enterococcus faecium [5] = assay: Antibacterial activity against vancomycin resistant Enterococcus faecium ATCC 700221 assessed as inhibition of bacterial growth by CLSI protocol based broth microdilution method; assay type: functional
Enterococcus faecalis [6] = assay: Inhibition of biofilm formation in Enterococcus faecalis ATCC 29212 at 12.5 ug/ml incubated for 24 hrs by Calgary biofilm device assay; assay type: functional; settings: dose 12.5 µg/ml
Enterococcus faecalis [7] = assay: Inhibition of biofilm formation in Enterococcus faecalis ATCC 29212 at 6.25 ug/ml incubated for 24 hrs by Calgary biofilm device assay; assay type: functional; settings: dose 6.25 µg/ml
Staphylococcus aureus [8] = assay: Inhibition of biofilm formation in Staphylococcus aureus ATCC 25923 at 3.125 to 12.5 ug/ml incubated for 24 hrs by Calgary biofilm device assay; assay type: functional, organism-based; settings: dose 3.125-12.5 µg/ml, DDE = dose-dependent effect
Enterococcus faecalis [9] = assay: Anti-biofilm activity against Enterococcus faecalis ATCC 29212 assessed as eradication of biofilm formation incubated for 24 hrs by Calgary biofilm device assay; assay type: functional
Staphylococcus aureus [10] = assay: Anti-biofilm activity against Staphylococcus aureus ATCC 25923 assessed as eradication of biofilm formation incubated for 24 hrs by Calgary biofilm device assay; assay type: functional; settings: Staphylococcus aureus, ATCC 25923
Staphylococcus aureus [11] = assay: Bactericidal activity against Staphylococcus aureus ATCC 700699 persisters assessed as log reduction in colony forming unit at 16 times MIC after 4 hrs by colony counting method; assay type: functional
Staphylococcus aureus [12] = assay: Bactericidal activity against Staphylococcus aureus ATCC 700699 persisters assessed as log reduction in colony forming unit at 2 to 32 times MIC measured for 4 hrs by time kill assay; assay type: functional, organism-based; settings: DDE = dose-dependent effect
Staphylococcus aureus [13] = assay: Bactericidal activity against Staphylococcus aureus ATCC 700699 persisters assessed as log reduction in colony forming unit at 16 times MIC measured for 4 hrs by time kill assay; assay type: functional
Staphylococcus aureus [14] = assay: Bactericidal activity against Staphylococcus aureus ATCC 700699 persisters assessed as log reduction in colony forming unit at 32 times MIC measured for 4 hrs by time kill assay; assay type: functional
Enterococcus faecalis [15] = assay: Antibacterial activity against Enterococcus faecalis clinical isolate 1091720 assessed as inhibition of bacterial growth by CLSI protocol based broth microdilution method; assay type: functional
Enterococcus faecalis [16] = assay: Antibacterial activity against Enterococcus faecalis clinical isolate 1094112 assessed as inhibition of bacterial growth by CLSI protocol based broth microdilution method; assay type: functional
Enterococcus faecalis [17] = assay: Antibacterial activity against Enterococcus faecalis clinical isolate 1100440 assessed as inhibition of bacterial growth by CLSI protocol based broth microdilution method; assay type: functional
Enterococcus faecium [18] = assay: Antibacterial activity against Enterococcus faecium clinical isolate 1088168 assessed as inhibition of bacterial growth by CLSI protocol based broth microdilution method; assay type: functional
Enterococcus faecium [19] = assay: Antibacterial activity against Enterococcus faecium clinical isolate 1088228 assessed as inhibition of bacterial growth by CLSI protocol based broth microdilution method; assay type: functional
Enterococcus faecium [20] = assay: Antibacterial activity against Enterococcus faecium clinical isolate 1089544 assessed as inhibition of bacterial growth by CLSI protocol based broth microdilution method; assay type: functional
Enterococcus faecium [21] = assay: Antibacterial activity against Enterococcus faecium clinical isolate 1091282 assessed as inhibition of bacterial growth by CLSI protocol based broth microdilution method; assay type: functional
Staphylococcus aureus [22] = assay: Antibacterial activity against Staphylococcus aureus clinical isolate 1088060 assessed as inhibition of bacterial growth by CLSI protocol based broth microdilution method; assay type: functional
Staphylococcus aureus [23] = assay: Antibacterial activity against Staphylococcus aureus clinical isolate 1088105 assessed as inhibition of bacterial growth by CLSI protocol based broth microdilution method; assay type: functional
Staphylococcus aureus [24] = assay: Antibacterial activity against Staphylococcus aureus clinical isolate 1088064 assessed as inhibition of bacterial growth by CLSI protocol based broth microdilution method; assay type: functional
Staphylococcus aureus [25] = assay: Antibacterial activity against Staphylococcus aureus clinical isolate 1088610 assessed as inhibition of bacterial growth by CLSI protocol based broth microdilution method; assay type: functional
Staphylococcus aureus [26] = assay: Antibacterial activity against Staphylococcus aureus clinical isolate 1088888 assessed as inhibition of bacterial growth by CLSI protocol based broth microdilution method; assay type: functional
Staphylococcus aureus [27] = assay: Antibacterial activity against Staphylococcus aureus clinical isolate 1089106 assessed as inhibition of bacterial growth by CLSI protocol based broth microdilution method; assay type: functional
Staphylococcus aureus [28] = assay: Antibacterial activity against Staphylococcus aureus ATCC 29213 assessed as inhibition of bacterial growth by CLSI protocol based broth microdilution method; assay type: functional
Staphylococcus aureus [29] = assay: Inhibition of DNA synthesis in Staphylococcus aureus ATCC 29213 at 0.5 times MIC preincubated for 30 mins followed by [3H]-thymidine and measured after 30 mins by [3H]-thymidine incorporation based beta scintillation counter analysis; assay type: functional; settings: time 60 min; 1 h
Staphylococcus aureus [30] = assay: Inhibition of DNA synthesis in Staphylococcus aureus ATCC 29213 at 1 times MIC preincubated for 30 mins followed by [3H]-thymidine and measured after 30 mins by [3H]-thymidine incorporation based beta scintillation counter analysis; assay type: functional; settings: time 60 min; 1 h
Staphylococcus aureus [31] = assay: Inhibition of RNA synthesis in Staphylococcus aureus ATCC 29213 at 0.25 times MIC preincubated for 30 mins followed by [3H]-uridine and measured after 30 mins by [3H]-uridine incorporation based beta scintillation counter analysis; assay type: functional; settings: time 60 min; 1 h
Staphylococcus aureus [32] = assay: Inhibition of RNA synthesis in Staphylococcus aureus ATCC 29213 at MIC preincubated for 30 mins followed by [3H]-uridine and measured after 30 mins by [3H]-uridine incorporation based beta scintillation counter analysis; assay type: functional; settings: time 60 min; 1 h
Staphylococcus aureus [33] = assay: Inhibition of protein synthesis in Staphylococcus aureus ATCC 29213 at 0.25 times MIC preincubated for 30 mins followed by [3H]-leucine and measured after 40 mins by [3H]-leucine incorporation based beta scintillation counter analysis; assay type: functional; settings: time 70.0 min
Staphylococcus aureus [34] = assay: Inhibition of protein synthesis in Staphylococcus aureus ATCC 29213 at 0.5 times MIC preincubated for 30 mins followed by [3H]-leucine and measured after 40 mins by [3H]-leucine incorporation based beta scintillation counter analysis; assay type: functional; settings: time 70.0 min
Staphylococcus aureus [35] = assay: Inhibition of lipid synthesis in Staphylococcus aureus ATCC 29213 at 0.25 times MIC preincubated for 30 mins followed by [3H]-glycerol and measured after 50 mins by [3H]-glycerol incorporation based beta scintillation counter analysis; assay type: functional; settings: time 80 min; 1.333 h
Enterococcus faecalis [36] = assay: Anti-biofilm activity against Enterococcus faecalis ATCC 29212 assessed as minimum bactericidal concentration incubated for 24 hrs by Calgary biofilm device assay; settings: ATCC 29212, 24 h

## O=C(O)c1ccc(-c2nn(-c3ccc(C(F)(F)F)cc3)cc2CNc2ccc(Br)c(C(F)(F)F)c2)cc1
Staphylococcus aureus [1]
  inhibition (INH): 44%
Staphylococcus aureus [2]
  MIC: 1.56 µg/mL (≈ 2.67 µM)
Staphylococcus aureus [3]
  MIC: 1.56 µg/mL (≈ 2.67 µM)
Bacillus subtilis
  MIC: 0.39 µg/mL (≈ 0.667 µM)
Enterococcus faecalis [4]
  MIC: 3.12 µg/mL (≈ 5.35 µM)
Enterococcus faecium [5]
  MIC: 0.78 µg/mL (≈ 1.33 µM)
Enterococcus faecalis [6]
  inhibition: Active
Enterococcus faecalis [7]
  inhibition: Active
Staphylococcus aureus [8]
  inhibition: Dde
Enterococcus faecalis [9]
  MBEC: 6.25 µg/mL
Staphylococcus aureus [10]
  MBEC: 6.25 µg/mL
Staphylococcus aureus [11]
  log(activity): >2
Staphylococcus aureus [12]
  Activity: Dde
Staphylococcus aureus [13]
  log(activity): 3
Staphylococcus aureus [14]
  log(activity): 5
Enterococcus faecalis [15]
  MIC: 8 µg/mL (≈ 13.7 µM)
Enterococcus faecalis [16]
  MIC: 8 µg/mL (≈ 13.7 µM)
Enterococcus faecalis [17]
  MIC: 8 µg/mL (≈ 13.7 µM)
Enterococcus faecium [18]
  MIC: 4 µg/mL (≈ 6.85 µM)
Enterococcus faecium [19]
  MIC: 8 µg/mL (≈ 13.7 µM)
Enterococcus faecium [20]
  MIC: 8 µg/mL (≈ 13.7 µM)
Enterococcus faecium [21]
  MIC: 8 µg/mL (≈ 13.7 µM)
Staphylococcus aureus [22]
  MIC: 4 µg/mL (≈ 6.85 µM)
Staphylococcus aureus [23]
  MIC: 4 µg/mL (≈ 6.85 µM)
Staphylococcus aureus [24]
  MIC: 4 µg/mL (≈ 6.85 µM)
Staphylococcus aureus [25]
  MIC: 4 µg/mL (≈ 6.85 µM)
Staphylococcus aureus [26]
  MIC: 8 µg/mL (≈ 13.7 µM)
Staphylococcus aureus [27]
  MIC: 4 µg/mL (≈ 6.85 µM)
Staphylococcus aureus [28]
  MIC: 1 µg/mL (≈ 1.71 µM)
Staphylococcus aureus [29]
  inhibition (INH): 43.6%
Staphylococcus aureus [30]
  inhibition (INH): 76%
Staphylococcus aureus [31]
  inhibition (INH): 14.1%
Staphylococcus aureus [32]
  inhibition (INH): 75.5%
Staphylococcus aureus [33]
  inhibition: 55.4%
Staphylococcus aureus [34]
  inhibition: 53.3%
Staphylococcus aureus [35]
  inhibition (INH): 55.4%
Enterococcus faecalis [36]
  MBC: 6.25 µg/mL (≈ 10.7 µM)
